Source: patent US4801616A, “Diphenylmethanone compounds and anti-inflammatory use thereof” (Eli Lilly and Company, priority 1986, dated 1989)

How the values were obtained:
5-lipoxygenase = target: T1, 5-lipoxygenase (Cavia porcellus, UniProt A0A286X958); assay: 5-Lipoxygenase (5-LPO) Assay, inhibition of 5-HETE formation in PMNL sonicate supernatant; assay type: biochemical, guinea pig; conditions: guinea pig PMNL sonicate supernatant, 37° C., 5 μM 14C-arachidonic acid
T1 construct: incubating 0.2 ml of the supernatant obtained from the PMNL sonicate with the test compound; from tissue; host or cells: casein-elicited guinea pig peritoneal polymorphonuclear leukocytes (PMNL, more than 95 percent of the cells), sonicated, 30,000 x g supernatant
T1 sequence (A0A286X958 1-674): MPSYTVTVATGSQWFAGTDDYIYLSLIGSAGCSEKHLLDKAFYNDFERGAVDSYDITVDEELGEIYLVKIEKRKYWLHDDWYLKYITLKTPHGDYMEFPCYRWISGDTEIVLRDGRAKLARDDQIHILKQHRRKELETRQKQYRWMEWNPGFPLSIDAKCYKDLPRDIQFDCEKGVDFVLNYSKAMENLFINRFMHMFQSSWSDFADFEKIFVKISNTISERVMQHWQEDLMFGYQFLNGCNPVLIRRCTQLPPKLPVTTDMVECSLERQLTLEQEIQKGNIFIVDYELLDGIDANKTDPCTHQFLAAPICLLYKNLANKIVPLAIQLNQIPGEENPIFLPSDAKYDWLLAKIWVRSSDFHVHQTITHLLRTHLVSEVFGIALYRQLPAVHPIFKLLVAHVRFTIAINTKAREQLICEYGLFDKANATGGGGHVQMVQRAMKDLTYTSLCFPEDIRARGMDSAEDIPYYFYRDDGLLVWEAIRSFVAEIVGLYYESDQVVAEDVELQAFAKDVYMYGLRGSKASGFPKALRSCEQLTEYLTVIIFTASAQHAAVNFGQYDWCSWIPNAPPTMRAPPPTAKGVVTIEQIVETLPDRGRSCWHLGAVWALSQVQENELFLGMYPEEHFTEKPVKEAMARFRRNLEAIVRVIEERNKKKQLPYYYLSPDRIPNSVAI
Description: 5-Lipoxygenase (5-LPO) Assay
Ten milliliters of a 2% casein solution were injected intraperitoneally into guinea pigs weighing 250-300 gm. After 16-18 hours, the guinea pigs were killed by suffocation in a carbon dioxide chamber. The peritoneal cavity was infused with 70 ml of saline and 40-50 ml of the fluid were recovered from the cavity. After centrifugation, cell pellets were washed twice in Hank's balanced salt solution (HBSS) without calcium ion.
The cells were then suspended in 5 ml of sodium phosphate buffer, pH 7.1 containing 1 mM EDTA, and 0.1% gelatin. About 20-30×10^7 cells were obtained from one guinea pig.
The PMNL suspension was disrupted by five 1/2 second pulse sonications at the setting of 3 in a Branson Sonifier, Model 350, equipped with a microtip. The sonicates were combined and centrifuged at 30,000× g for 10 minutes. The supernatant was kept frozen at -70° C. until use.
Enzyme activity was determined by assaying for 5-HETE formation by first incubating 0.2 ml of the supernatant obtained from the PMNL sonicate with the test compound, 1 mM CaCl2, 2 mM ATP, and 1 mM GSH for 5 minutes at 37° C. The mixture is treated with 5 μM ^14 C-arachidonicacid and incubated at 37° C. an additional 10 minutes. The enzyme reaction was then stopped by the addition of 10 μl of 1M citric acid and 10μl of an alcohol solution containing 20 mg/ml each of indomethacin and butylated hydroxyanisole (BHA). The reaction mixture was spotted (50 μl on a silica gel plate (Baker TLC plate S1250-PA-19C) and subjected to TLC in a solvent system of ethyl acetate/2,2,4-trimethylpentane/glacial acetic acid/water (90:50:20:100).
The radioactivity of the arachidonic acid and its metabolites (5-HETE and LTB4) was visualized from a developed x-ray film which had been exposed to the TLC plate 1-2 days. The amount of 5-HETE formed was quantitated by scraping the silica gel area corresponding to the spot on the x-ray film, and the radioactivity determined in a Isocap/300 liquid scintillation counter (Searle Analytic, Inc.).
The percent inhibition of the formation of 5-HETE was determined for each concentration of test compound tested as compared to a control experiment wherein no test compound was added. The concentration and percent inhibition values were plotted on semi log paper and the concentration in which formation of 5-HETE is inhibited by 50% (IC50) was determined by interpolation.

[1] = target: T2, fatty acid cyclooxygenase (Homo sapiens, UniProt P23219); assay: Fatty Acid Cyclooxygenase (FCO) Assay, inhibition of PGE2 formation by purified human platelet enzyme; assay type: biochemical
T2 construct: The solubilized fatty acid cyclooxygenase was applied to a 440 ml electrofocusing column; from tissue; host or cells: human platelets: microsomes solubilized with Triton X-100, purified by electrofocusing and G-200 Sephadex
T2 sequence (P23219 24-599): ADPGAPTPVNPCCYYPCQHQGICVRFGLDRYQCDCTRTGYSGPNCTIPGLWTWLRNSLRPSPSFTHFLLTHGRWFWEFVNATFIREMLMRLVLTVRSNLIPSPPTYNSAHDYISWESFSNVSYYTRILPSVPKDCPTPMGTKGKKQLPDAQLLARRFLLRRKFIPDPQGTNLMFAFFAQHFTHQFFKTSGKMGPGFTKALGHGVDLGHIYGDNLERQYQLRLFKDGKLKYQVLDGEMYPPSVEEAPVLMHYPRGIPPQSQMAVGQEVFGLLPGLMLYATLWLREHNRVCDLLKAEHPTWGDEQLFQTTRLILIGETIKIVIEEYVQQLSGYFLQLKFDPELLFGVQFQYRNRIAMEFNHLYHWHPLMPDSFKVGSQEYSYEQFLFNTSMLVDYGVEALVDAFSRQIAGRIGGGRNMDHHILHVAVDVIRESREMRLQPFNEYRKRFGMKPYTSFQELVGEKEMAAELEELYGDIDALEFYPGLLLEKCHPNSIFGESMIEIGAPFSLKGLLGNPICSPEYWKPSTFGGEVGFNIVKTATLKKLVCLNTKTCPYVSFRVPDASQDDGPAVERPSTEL
Description: Fatty Acid Cyclooxygenase (FCO) Assay
Microsomes were prepared from 185 bags of human platelets (each bag containing the platelets from one pint of blood prepared using differential centrifugation procedures). The platelets from approximately 60 bags were prepared at one time. Platelet-rich plasma (500 g) was centrifuged at 10,000×g for 20 minutes, and the platelet pellet was suspended in 100 ml of 0.1M potassium phosphate buffer, pH 8.0, with a Teflon glass homogenizer and sonicated for 5.0 minutes with a Bronson Sonifier (Model 350) in a rosette flask cooled in ice water. Disrupted platelets were centrifuged 15 minutes at 10,000× g. The supernatant was centrifuged at 100,000× g for 90 minutes and the microsomal pellets were homogenized in 25 ml of 20% sucrose containing 1.0% Triton X-100 detergent. After 30 minutes at 4° C., the solubilized microsomes were centrifuged at 100,000× g for 60 minutes. The yellow supernatant was removed and stored at -70 ° C.
The solubilized fatty acid cyclooxygenase was applied to a 440 ml electrofocusing column (LKB-8012) containing 1% phisolytes (Brinkman Instruments, Westburgh, NY), pH 2-11, with the cathode at the top of the column. The enzyme was layered onto the column at the appropriate time so that its sucrose concentration was equal to that of the column gradient. This was accomplished by checking the gradient concentration periodically with a sucrose hand refractometer. Electrofocusing was carried out for 16 hours with an initial voltage of 400 V and a final voltage of 900-1,000 volts. Fractions were collected (20 ml) and assayed for PGE2 formation. Active peak fractions were pooled and concentrated by ultrafiltration (XM 100A) to a volume of 3-5 ml.
Active fractions from electrofocusing were applied to a G-200 Sephadex column (2 cm×46 cm) and eluted with 10 mM potassium phosphate buffer, pH 7.0, in 5 ml fractions. After assay, active fractions were poored and concentrated to 1.0 ml by ultrafiltration (XM 100A), and kept frozen at -70° C.
Enzyme activity was determined by assaying for PGE2 formation by preincubating the enzyme with 10 mmol/l imidazole phosphate buffer, pH 8.0, 2 mmol/l epinephrine, 2 mmol/l methemoglobin, and the test compound (30 μg/ml) in a total volume of 0.2 ml for one minute at 37° C. After preincubation, 5 mmol/l ^14 C-arachidonic acid were added and the mixture was incubated an additional 0.5 minutes at 37° C. The enzyme reaction was stopped by the addition of 2 μl of indomethacin (2 mg/ml) in alcohol.
The reaction mixture was spotted (50 μl) on a silica gel (LQ6D) plate and subjected to TLC. The solvent system consisted of chloroform-methanol-glacial acetic acid (90:5:5, v/v/v) and the relative mobilities were PGF2α =0.235, and PGE2 =0.47. The silica gel on the plate was scraped in 1 cm sections, suspended in 5 ml of the scintillation fluid [5.88 g of 2,5-diphenyloxazole and 118 mg of 1,4 -bis(5-phenyloxazol-2-yl)benzene] dissolved in 650 ml of toluene and 350 ml of Triton X-100) and the radioactivity was determined in an Isocap/300 liquid scintillation counter (Searle Analytic, Inc., Southfield, Mich.). Another 50 μl of the mixture was added to 10 ml of the Triton X-100 based scintillation fluid, and the radioactivity was determined so that the amount of radioactivity recovery from the TLC plate could be ascertained. PGE2 formation for each test compound was determined as a percent of control experiments wherein no test compound was added. Data is expressed in Table I either as the percent inhibition of formation of PGE2 at a test compound concentration of 30 μ g/ml, or as an IC50 for inhibition of PGE2 formation.

SMILES | IC50 (5-lipoxygenase) [µM] | IC50 ([1]; human platelet microsomal enzyme, pH 8.0, 37° C.) [µM] | inhibition at 30 µg/mL ([1]; percent inhibition at 30 μg/ml) [%]
CCCc1c(OCC#N)ccc(C(=O)c2ccccc2O)c1O [Example 12] | 22.5 | 32.1 | 
CCCc1c(OC(C)=O)ccc(C(=O)c2ccccc2OC(C)=O)c1O [Example 6, [4-(Acetyloxy)-2-hydroxy-3-propylphenyl][2(acetyloxy)phenyl]methanone] | 11.2 |  | 12
